The test system of assay [1] is Triticum aestivum variety “AC Harvest”. The assay can be described thus: Growth chamber trial, grain yield after post-emergence spray application. The assay is classed as in vivo. The following applies: for Relative, %: grain yield relative to UTC = 100; for Relative, % / Difference (%) vs. UTC: 10 gai/ha of each active ingredient (mixtures 10 + 10); for Difference (%) vs. UTC: grain yield; for Grain Yield, g/plant: growth chamber, spray at BBCH 56-61, 10 gai/ha of each active ingredient (mixtures 10 + 10).

In another assay the test system is Corn. The assay can be described thus: Field trial, corn grain yield after post emergence application. The format is in vivo. The settings on record: for Relative, %: yield relative to UTC = 100. The text has this: (§1) The trials have been carried out under natural field conditions (plot trials, 10 sqm, 4 replications) with spray applications using 100-300 l/water per hectare.
(§2) The applications have been done as post emergence treatments straight (alone, 1 application). The growth stage of the crops species at the time of application are reported in the single tables as well as the dose rates of the active ingredients applied.
(§3) The trials have been harvested after crops reached the full maturity. After the harvest, the total weights of grains (kernels/seeds) per plot were taken. Afterwards the seed samples were dried to 14% moisture. The freshweight were calculated to a uniform dry weight of 86% for all harvested plots. The results are reported as means over 4 replications per treatment based on 14% moisture resp. 86% dry weight. The time interval (in days) between applications and harvest time are also described in the single tables.

A further assay has as its system Spring wheat. The assay can be described thus: Field trial, spring wheat grain yield after post emergence application. The assay is classed as in vivo. The settings on record: 100 gai/ha; for Relative, %: yield relative to UTC = 100.
Description: as §1, §2, §3

Assay [2] has as its system Oil seed rape (spring; Canola). The assay can be described thus: Field trial, oil seed rape grain yield after post emergence application. The following applies: 100 gai/ha. The assay is classed as in vivo.
Description: as §1, §2, §3

For assay [3], the system named is Triiticum aestivum seeds (TRZAS). Kind of assay: Seed treatment trial, grain yield of plants from treated seeds. The assay is classed as in vivo, Triticum aestivum.
Where [4] appears, read: 20 gai/ha, mid-post, harvest 76 days after application.
[5] abbreviates: 100 gai/ha, GS 33, harvest 84 days after application.
[6] abbreviates: GS 39, harvest 80 days after application.
The mark [7] stands for this setting: GS 55, harvest 72 days after application.
Where [8] appears, read: grain yield relative to UTC = 100, 1 gai/kg seed.
Where [9] appears, read: 250 gai/ha, mid-post, harvest 76 days after application.

As for `CO/C=C(/C(=O)OC)c1ccccc1Oc1cc(Oc2ccccc2C#N)ncn1` [Azoxystrobin, azoxystrobin], in assay [1], the “Relative, %” value stood at 115.1%; the “Difference (%) vs. UTC” value is given as “+15.1%”; the “Grain Yield, g/plant” value turned out to be 1.22 g/plant.

In the case of `CCCCCC(C)OC(=O)COc1ccc(Cl)c2cccnc12` (stereo not drawn) [CQM, 1-methylhexyl (5-chloro-8-quinolinoxy)acetate], the “Relative, %” value in assay [1] was determined as 103.7%; in the assay on Corn (setting [4]), 102.4%; in the assay with Corn (setting [5]), 108.0%; in the assay on Spring wheat (setting [6]) it was 109.0%; with Spring wheat (setting [7]), 107.0%; in assay [2] (yield relative to UTC = 100, GS 60, harvest 49 days after application), 104.0%. For the same compound, the “Relative, %” value in assay [3] (grain yield relative to UTC = 100, 0.5 gai/kg seed) turned out to be 114.4%; in assay [3] (setting [8]), 109.4%. Also, the “Difference (%) vs. UTC” value was “+3.7%” in assay [1]; “+2.4%” in the assay with Corn (setting [4]); “+9.0%” in the assay with Corn (setting [5]); “+9.0%” in the assay with Spring wheat (setting [6]); “+7.0%” in the assay on Spring wheat (setting [7]); “+4.0%” in assay [2] (GS 60, harvest 49 days after application). The “Difference (%) vs. UTC” value in assay [3] (0.5 gai/kg seed) was “+14.4%”; in assay [3] (1 gai/kg seed) it was “+9.4%”. The results for the “Grain Yield, g/plant” value in assay [1], in assay [3] (0.5 gai/kg seed) and in assay [3] (1 gai/kg seed) were 1.10 g/plant, 2.06 g/plant and 1.97 g/plant, respectively. Moreover, the “Yield, dt/ha” value is listed as 94 dt/ha in the assay on Corn (setting [4]); 52.7 dt/ha in the assay on Corn (100 gai/ha, post emergence, stem elongation stage (GS 33), harvest 84 days after application); 40.2 dt/ha in the assay on Spring wheat (late post emergence, ear heading (GS 55), harvest 72 days after application); 41.7 dt/ha in the assay with Spring wheat (post emergence, flag leaf stage (GS 39), harvest 80 days after application); 18.4 dt/ha in assay [2] (late post emergence, begin of flowering (GS 60), harvest 49 days after application).

Consider `CN/C(=N\[N+](=O)[O-])NCc1cnc(Cl)s1` [Clothianidin, clothianidin], for which, in assay [1], the “Relative, %” value turned out to be 112.3%; the “Difference (%) vs. UTC” value is given as “+12.3%”; the “Grain Yield, g/plant” value was determined as 1.19 g/plant.

`CC1COC(Cn2cncn2)(c2ccc(Oc3ccc(Cl)cc3)cc2Cl)O1` (stereo not drawn) [Difenoconazole, difenoconazole]: in assay [1], the “Relative, %” value came out at 96.2%; the “Difference (%) vs. UTC” value is −3.8%; the “Grain Yield, g/plant” value is recorded as 1.02 g/plant. Besides, in assay [3] (1 gai/kg seed), the “Difference (%) vs. UTC” value is on record as −10% and the “Grain Yield, g/plant” value amounted to 1.62 g/plant. Moreover, the “Relative, %” value in assay [3] (setting [8]) is 90%.

Turning to `N#Cc1nn(-c2c(Cl)cc(C(F)(F)F)cc2Cl)c(N)c1[S+]([O-])C(F)(F)F` (stereo not drawn) [Fipronil, fipronil], in assay [1], the “Relative, %” value worked out at 112.3%; the “Difference (%) vs. UTC” value is “+12.3%”; the “Grain Yield, g/plant” value is reported as 1.19 g/plant.

Consider `N#Cc1c[nH]cc1-c1cccc2c1OC(F)(F)O2` [Fludioxonil, fludioxonil], for which, in assay [3] (1 gai/kg seed), the “Difference (%) vs. UTC” value was “+14.4%” and the “Grain Yield, g/plant” value was found to be 2.06 g/plant. Moreover, the “Relative, %” value in assay [3] (setting [8]) is 114.4%.

Regarding `OC(Cc1ccccc1Cl)(Cn1nc[nH]c1=S)C1(Cl)CC1` (stereo not drawn) [Prothioconazole, prothioconazole], in assay [1], the “Relative, %” value was found to be 96.2%; the “Difference (%) vs. UTC” value is −3.8%; the “Grain Yield, g/plant” value amounted to 1.02 g/plant.

Take `COC(=O)N(OC)c1ccccc1COc1ccn(-c2ccc(Cl)cc2)n1` [Pyraclostrobin, pyraclostrobin]: in assay [1], the “Relative, %” value is 117.0%; the “Difference (%) vs. UTC” value is given as “+17.0%”; the “Grain Yield, g/plant” value was determined as 1.24 g/plant. Further, in the assay on Corn (setting [9]), the “Difference (%) vs. UTC” value is on record as −15.2%; the “Yield, dt/ha” value came to 78 dt/ha; the “Relative, %” value is given as 84.8%.

`CON=C(C(=O)OC)c1ccccc1CON=C(C)c1cccc(C(F)(F)F)c1` [Trifloxystrobin, trifloxystrobin]: in assay [1], the “Relative, %” value is on record as 105.7%; the “Difference (%) vs. UTC” value was “+5.7%”; the “Grain Yield, g/plant” value was determined as 1.12 g/plant.

As for `O=[N+]([O-])NC1=NCCN1Cc1ccc(Cl)nc1` [lmidacloprid, imidacloprid], in assay [1], the “Relative, %” value amounted to 107.5%; the “Difference (%) vs. UTC” value is “+7.5%”; the “Grain Yield, g/plant” value is on record as 1.14 g/plant.

For `COCC(=O)N(c1c(C)cccc1C)C(C)C(=O)OC` (stereo not drawn) [metalaxyl], the “Relative, %” value is reported as 107.5% in assay [1] and 84.4% in assay [3] (setting [8]). In addition, the “Difference (%) vs. UTC” value is reported as “+7.5%” in assay [1] and −15.6% in assay [3] (1 gai/kg seed). In addition, the “Grain Yield, g/plant” value in assay [1] was found to be 1.14 g/plant; in assay [3] (1 gai/kg seed) it was 1.52 g/plant.

The values above are taken from US9963431B2, “Use of quinoline derivatives for improving plant yield” (BAYER CROPSCIENCE AG, priority 2013, dated 2018).
